Read-outs that look alike come from different tables or passages of the source.
Legend:
[1] = system: SMCs (human aortic smooth muscle cells); assay: Cell proliferation ELISA BrdU assay; assay type: cell-based; conditions: for inhibition at 5 µg/mL: Homo sapiens, at the concentration of 5 μg/ml, FIGS. 3 and 4, read-out: inhibition of the growth of muscle cell; for inhibition of the growth of muscle cell (in words): absorbance 450 nm, FIGS. 3 and 4
Experimental: To determine the effects of cell proliferation by the sample, Cell proliferation ELISA BrdU assay kit (Roche, USA) was purchased and used. Cells were put into 96 wells plate, treated with the sample after cultivation, and cultured for a certain period of time. At a certain point of time, BrdU labeling solution was added into the cells, which in turn were reacted at 37° C., in 5% CO2 for 2 hr. Then, FixDenat was added thereto, and the mixture was reacted at the room temperature for 30 min. And, Anti-BrdU-POD working solution was added thereto, and the mixture was reacted at the room temperature for 1 hr and 30 min. Afterwards, substrate solution was added thereto, and the mixture was reacted at the room temperature for 20 min. The reaction was stopped by using sulphuric acid, and then the absorbance was determined at 450 nm.

[2] = system: SMCs (human aortic smooth muscle cells); assay: Cell cytotoxicity, colorimetric MTT assay
Experimental: SMCs (human aortic smooth muscle cells, Cambrex, USA) were cultured in SmGM-2 BulletKit (Cambex, USA) medium containing 10% FBS (Cambrex, USA), with 100× antibiotics (Cambex, USA) added thereto, and subcultured by using 1×trypsin-EDTA (Gibco BRL, USA) with maintaining the condition of 37° C., 5% CO2.
Before confirming whether ginsenoside and red ginseng extract affect the growth of muscle cell, the cell cytotoxicity was determined as the effect of cell cytotoxicity induced by ginsenosides Rk1, Rg3, and Rg5, red ginseng extract, and the present composition in muscle cell.
The cell cytotoxicity to the sample was determined by colorimetric MTT assay (Scudiero D. A. et al., Cancer Res., 48:4827-4833, 1988). That is, the muscle cell was plated to 96 wells microtiter tissue culture plate (Falcon) by 1×10^4 cells/ml, and then each well was treated with the sample, cultured for a certain period of time, treated with MTT sample, and melted with solubilization solution when formazan was formed, and the absorbance was determined at 540 nm.

[3] = MTT, absorbance 540 nm, proper concentration, FIGS. 1 and 2

Row | SMILES | inhibition at 5 µg/mL [1] | inhibition of the growth of muscle cell (in words) [1] | cell cytotoxicity in muscle cell [2] | cell cytotoxicity in muscle cell [2, 3]
1 | CC(C)=CCC[C@](C)(O)[C@H]1CC[C@]2(C)[C@@H]1[C@H](O)C[C@@H]1[C@@]3(C)CC[C@H](O[C@@H]4O[C@H](CO)[C@@H](O)[C@H](O)[C@H]4O[C@@H]4O[C@H](CO)[C@@H](O)[C@H](O)[C@H]4O)C(C)(C)[C@@H]3CC[C@]12C [Rg3, ginsenoside Rg3] | 50% | inhibited the growth of muscle cell | no cell cytotoxicity was found | 
2 | CC(C)=CC/C=C(/C)C1CCC2(C)C1C(O)CC1C3(C)CCC(OC4OC(CO)C(O)C(O)C4OC4OC(CO)C(O)C(O)C4O)C(C)(C)C3CCC12C (centres unmarked) [Rg5, ginsenoside Rg5] | 50% | inhibited the growth of muscle cell |  | no cell cytotoxicity was found
3 | C=C(CCC=C(C)C)C1CCC2(C)C1C(O)CC1C3(C)CCC(OC4OC(CO)C(O)C(O)C4OC4OC(CO)C(O)C(O)C4O)C(C)(C)C3CCC12C (centres unmarked) [Rk1, ginsenoside Rk1] |  | inhibited the growth of muscle cell |  | no cell cytotoxicity was found
